Laboratory results taken from PubChem BioAssay (NCI).
Values joined by “and” are separate entries in the source; they are usually repeats but may differ in a detail not shown here. Equal entries are not always repeated.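 Cells were grown in 96-well plates and exposed to each compound for 48 hours at five concentrations; endpoints were interpolated linearly between bracketing concentrations, or set to the highest concentration if not reached. GI50 = concentration required for 50% inhibition of growth. At the TGI there is no net growth.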

Key:
Test in all cases: inhibition of tumour cell growth, NCI panel, 48 h; in the data active = GI50 below about 0.43 µM; inactive = the rest
[1] = test system: HOP-92 NSCLC
[2] = test system: ACHN renal
[3] = test system: UO-31 renal
[4] = test system: KM20L2 colon
[5] = test system: RXF 393 renal
[6] = test system: CAKI-1 renal
[7] = test system: RPMI-8226 leukemia
[8] = test system: CCRF-CEM leukemia
[9] = test system: M14 melanoma
[10] = test system: M19-MEL melanoma
[11] = test system: HCT-15 colon
[12] = test system: DMS 273 small cell lung
[13] = test system: OVCAR-8 ovarian
[14] = test system: OVCAR-3 ovarian
[15] = test system: A549 NSCLC
[16] = test system: MALME-3M melanoma
[17] = test system: SNB-75 CNS
[18] = test system: SK-MEL-5 melanoma
[19] = test system: IGROV1 ovarian
[20] = test system: COLO 205 colon
[21] = test system: HCC-2998 colon
[22] = test system: HT29 colon
[23] = test system: DLD-1 colon
[24] = test system: HCT-116 colon
[25] = test system: KM12 colon
[26] = test system: SK-OV-3 ovarian
[27] = test system: OVCAR-4 ovarian
[28] = test system: HL-60(TB) leukemia
[29] = test system: LXFL 529 NSCLC
[30] = test system: SK-MEL-28 melanoma
[31] = test system: K-562 leukemia
[32] = test system: SF-268 CNS
[33] = test system: MOLT-4 leukemia
[34] = test system: HOP-18 NSCLC
[35] = test system: A498 renal
[36] = test system: NCI-H460 lung
[37] = test system: NCI-H522 lung
[38] = test system: UACC-62 melanoma
[39] = test system: NCI-H226 lung
[40] = test system: LOX IMVI melanoma
[41] = test system: SF-539 CNS
[42] = test system: HOP-62 NSCLC
[43] = test system: UACC-257 melanoma
[44] = test system: EKVX NSCLC
[45] = test system: XF 498 CNS
[46] = test system: SNB-19 CNS
[47] = test system: U251 CNS
[48] = test system: TK-10 renal
[49] = test system: SN12C renal
[50] = test system: SNB-78 CNS
[51] = test system: SF-295 CNS
[52] = test system: OVCAR-5 ovarian
[53] = test system: DMS 114 small cell lung
[54] = test system: NCI-H23 lung
[55] = test system: SR leukemia
[56] = test system: SK-MEL-2 melanoma
[57] = test system: 786-0 renal
[58] = test system: SW-620 colon
[59] = test system: RXF-631 renal

CCOC(OC1=C(C#N)CCC1)C(CC)[Se]c1ccccc1 (configuration not stated)
83.8 µM: TGI [21]
31.6 µM: TGI [18]
48.5 µM: TGI [29]
> 100 µM: TGI [6] | TGI [8] | TGI [11] | TGI [15] | TGI [25] | TGI [26] | TGI [31] | TGI [35] | TGI [36] | TGI [42] | TGI [43] | TGI [46] | TGI [48] | TGI [50]
30.3 µM: TGI [10]
61.9 µM: TGI [38]
69.5 µM: TGI [34]
52.7 µM: TGI [51]
89 µM: TGI [44]
49.8 µM: TGI [7]
41.2 µM: TGI [23]
25.1 µM: TGI [54]
38.7 µM: TGI [5] | TGI [32]
90.4 µM: TGI [30]
54 µM: TGI [1]
64.2 µM: TGI [17]
71 µM: TGI [19]
64.7 µM: TGI [4]
53.9 µM: TGI [20]
65.2 µM: TGI [13]
80.5 µM: TGI [22]
73.6 µM: TGI [3]
26.8 µM: TGI [37]
31.1 µM: TGI [55]
23.9 µM: TGI [47]
32.3 µM: TGI [9] | TGI [49]
37.6 µM: TGI [41]
49.7 µM: TGI [45]
10.4 µM: TGI [53]
24.2 µM: TGI [12]
28.2 µM: TGI [57]
38.4 µM: TGI [28]
80.8 µM: TGI [56]
54.8 µM: TGI [52]
17.7 µM: TGI [40]
81.9 µM: TGI [2]
58.5 µM: TGI [14]
66.7 µM: TGI [16]
53.4 µM: TGI [39]
48.8 µM: TGI [33]
33.1 µM: TGI [27]
57.6 µM: TGI [24]

CCOC(=O)/C=C(/CN1C(=O)c2ccccc2C1=O)c1ccccc1
> 100 µM: TGI [1] | TGI [2] | TGI [3] | TGI [4] | TGI [5] | TGI [6] | TGI [7] | TGI [8] | TGI [9] | TGI [10] | TGI [11] | TGI [12] | TGI [13] | TGI [14] | TGI [15] | TGI [16] | TGI [17] | TGI [18] | TGI [19] | TGI [20] | TGI [21] | TGI [22] | TGI [58] | TGI [23] | TGI [24] | TGI [25] | TGI [26] | TGI [27] | TGI [29] | TGI [30] | TGI [31] | TGI [32] | TGI [33] | TGI [34] | TGI [35] | TGI [36] | TGI [37] | TGI [38] | TGI [39] | TGI [40] | TGI [41] | TGI [42] | TGI [43] | TGI [44] | TGI [45] | TGI [46] | TGI [47] | TGI [48] | TGI [49] | TGI [50] | TGI [51] | TGI [52] | TGI [53] | TGI [54] | TGI [56] | TGI [57]

Nc1nc(N)c2ncn(CC(CO)CC(c3ccccc3)P(=O)(O)O)c2n1 (configuration not stated)
inactive: GI50 [29] > 100 µM and 13.8 µM | GI50 [55] > 100 µM and 35 µM
10.4 µM: TGI [9]
> 100 µM: TGI [1] | TGI [2] | TGI [3] | TGI [4] | TGI [5] | TGI [6] | TGI [7] | TGI [8] | TGI [10] | TGI [11] | TGI [12] | TGI [13] | TGI [14] | TGI [15] | TGI [16] | TGI [17] | TGI [18] | TGI [19] | TGI [20] | TGI [21] | TGI [22] | TGI [58] | TGI [23] | TGI [24] | TGI [25] | TGI [26] | TGI [28] | TGI [30] | TGI [31] | TGI [32] | TGI [33] | TGI [34] | TGI [35] | TGI [36] | TGI [37] | TGI [38] | TGI [39] | TGI [40] | TGI [41] | TGI [42] | TGI [43] | TGI [44] | TGI [45] | TGI [46] | TGI [47] | TGI [48] | TGI [49] | TGI [50] | TGI [51] | TGI [52] | TGI [53] | TGI [54] | TGI [55] | TGI [56]
> 100 µM and 99.3 µM: TGI [29]

COc1ccc2c(C3(O)CCNCC3)c[nH]c2c1
> 100 µM: TGI [1] | TGI [2] | TGI [3] | TGI [4] | TGI [5] | TGI [6] | TGI [7] | TGI [8] | TGI [9] | TGI [10] | TGI [11] | TGI [12] | TGI [13] | TGI [14] | TGI [15] | TGI [16] | TGI [59] | TGI [17] | TGI [18] | TGI [19] | TGI [20] | TGI [21] | TGI [22] | TGI [58] | TGI [23] | TGI [25] | TGI [26] | TGI [27] | TGI [28] | TGI [29] | TGI [30] | TGI [31] | TGI [32] | TGI [33] | TGI [34] | TGI [36] | TGI [37] | TGI [38] | TGI [40] | TGI [41] | TGI [42] | TGI [44] | TGI [46] | TGI [47] | TGI [48] | TGI [49] | TGI [51] | TGI [52] | TGI [54] | TGI [56] | TGI [57]
